Holding throughout (format): in vivo
Test [1] has as its system Echinochloa crus-galli (ECHCG). The test is described as follows: Test Example 1 post-emergence herbicidal activity. The conditions noted are these: rate 125 g/ha, evaluated 15 days later; for pest or weed control at 125 g/ha: 360 h, read-out: Post-emergence activity ECHCG (100=total damage to plant; 0=no damage to plant). The gist of the method: (§1)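 Once sown in standard soil, pots received an aqueous spray of the formulated active ingredient, either after one day or after ten days of controlled glasshouse growth. Plants then grew under optimum greenhouse conditions. Herbicidal effect was assessed visually 15 (post-emergence) or 20 (pre-emergence) days later, 100 meaning total plant damage.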

Test [2] has as its system Digitaria sanguinalis (DIGSA). The test is described as follows: Test Example 1 post-emergence herbicidal activity. The conditions noted are these: rate 125 g/ha, evaluated 15 days later; for pest or weed control at 125 g/ha: 360 h, read-out: Post-emergence activity DIGSA (100=total damage to plant; 0=no damage to plant). The gist of the method:
as §1

For test [3], the system named is Alopecurus myosuroides (ALOMY). The test is described as follows: Test Example 1 post-emergence herbicidal activity. The conditions noted are these: rate 125 g/ha, evaluated 15 days later; for pest or weed control at 125 g/ha: 360 h, read-out: Post-emergence activity ALOMY (100=total damage to plant; 0=no damage to plant). The method in brief:
as §1

In test [4] the test system is Setaria faberi (SETFA). The test is described as follows: Test Example 1 post-emergence herbicidal activity. The conditions noted are these: rate 125 g/ha, evaluated 15 days later; for pest or weed control at 125 g/ha: 360 h, read-out: Post-emergence activity SETFA (100=total damage to plant; 0=no damage to plant). The method in brief:
as §1

Test [5] deals with Lolium perenne (LOLPE). The test can be described thus: Test Example 1 post-emergence herbicidal activity. The settings on record: rate 125 g/ha, evaluated 15 days later; for pest or weed control at 125 g/ha: 360 h, read-out: Post-emergence activity LOLPE (100=total damage to plant; 0=no damage to plant). The method in brief: as §1
For test [6], the system named is Avena fatua (AVEFA). The test can be described thus: Test Example 1 post-emergence herbicidal activity. The settings on record: rate 125 g/ha, evaluated 15 days later; for pest or weed control at 125 g/ha: 360 h, read-out: Post-emergence activity AVEFA (100=total damage to plant; 0=no damage to plant). The method in brief:
as §1

Test [7] concerns Echinochloa crus-galli (ECHCG). The test is described as follows: Test Example 1 pre-emergence herbicidal activity. The conditions noted are these: rate 250 g/ha, evaluated 20 days later; for pest or weed control at 250 g/ha: Echinochloa crus-galli, 480 h, read-out: Pre-emergence activity ECHCG (100=total damage to plant; 0=no damage to plant). The gist of the method:
as §1

Test [8] concerns Digitaria sanguinalis (DIGSA). The test can be described thus: Test Example 1 pre-emergence herbicidal activity. The settings on record: rate 250 g/ha, evaluated 20 days later; for pest or weed control at 250 g/ha: Digitaria sanguinalis, 480 h, read-out: Pre-emergence activity DIGSA (100=total damage to plant; 0=no damage to plant). The method in brief: as §1
Test [9] concerns Alopecurus myosuroides (ALOMY). The test is described as follows: Test Example 1 pre-emergence herbicidal activity. The conditions noted are these: rate 250 g/ha, evaluated 20 days later; for pest or weed control at 250 g/ha: Alopecurus myosuroides, 480 h, read-out: Pre-emergence activity ALOMY (100=total damage to plant; 0=no damage to plant). The method in brief: as §1
Test [10] concerns Setaria faberi (SETFA). The test is described as follows: Test Example 1 pre-emergence herbicidal activity. The settings on record: rate 250 g/ha, evaluated 20 days later; for pest or weed control at 250 g/ha: Setaria faberi, 480 h, read-out: Pre-emergence activity SETFA (100=total damage to plant; 0=no damage to plant). The gist of the method: as §1
The subject of test [11] is Lolium perenne (LOLPE). The test can be described thus: Test Example 1 pre-emergence herbicidal activity. The conditions noted are these: rate 250 g/ha, evaluated 20 days later; for pest or weed control at 250 g/ha: Lolium perenne, 480 h, read-out: Pre-emergence activity LOLPE (100=total damage to plant; 0=no damage to plant). The method in brief: as §1
For test [12], the system named is Avena fatua (AVEFA). The test can be described thus: Test Example 1 pre-emergence herbicidal activity. The conditions noted are these: rate 250 g/ha, evaluated 20 days later; for pest or weed control at 250 g/ha: Avena fatua, 480 h, read-out: Pre-emergence activity AVEFA (100=total damage to plant; 0=no damage to plant). The method in brief: as §1

Each structure is given as a SMILES string.

Consider `Cc1cc(C)c(C2=C(O)[C@H]3[C@@H](C2=O)[C@@H]2CC[C@@]3(C)O2)c(C)c1` [Example T48], for which, in test [1], the “Post-emergence activity ECHCG (100=total damage to plant; 0=no damage to plant)” value is recorded as 100. The “Post-emergence activity DIGSA (100=total damage to plant; 0=no damage to plant)” value in test [2] turned out to be 100. The “Post-emergence activity ALOMY (100=total damage to plant; 0=no damage to plant)” value in [3] turned out to be 80. Moreover, the “Post-emergence activity SETFA (100=total damage to plant; 0=no damage to plant)” value in [4] is recorded as 90. In addition, in test [5], the “Post-emergence activity LOLPE (100=total damage to plant; 0=no damage to plant)” value amounted to 70. In test [6], the “Post-emergence activity AVEFA (100=total damage to plant; 0=no damage to plant)” value is listed as 70. In [7], the “Pre-emergence activity ECHCG (100=total damage to plant; 0=no damage to plant)” value was 100. The “Pre-emergence activity DIGSA (100=total damage to plant; 0=no damage to plant)” value in test [8] came to 100. Moreover, the “Pre-emergence activity ALOMY (100=total damage to plant; 0=no damage to plant)” value in [9] is 100. In test [10], the “Pre-emergence activity SETFA (100=total damage to plant; 0=no damage to plant)” value is reported as 100. In addition, the “Pre-emergence activity LOLPE (100=total damage to plant; 0=no damage to plant)” value in [11] stood at 100. Further, in [12], the “Pre-emergence activity AVEFA (100=total damage to plant; 0=no damage to plant)” value stood at 80.

Regarding `Cc1cc(C)c(C2=C(O)[C@H]3[C@@H](C2=O)[C@@H]2CC[C@@]3(CO)O2)c(C)c1` [Example T49], the pest or weed control at 125 g/ha in test [1] amounted to 80%; in test [2], 70%; in [3], 80%; in test [4], 50%; in test [5], 70%; in test [6], 80%. For the same compound, the pest or weed control at 250 g/ha in test [7] is 80%; in test [8], 10%; in test [9] it was 80%; in [10], 20%; in [11], 100%; in [12], 70%.

In the case of `CC[C@]12CC[C@H](O1)[C@@H]1C(=O)C(c3c(C)cc(C)cc3C)=C(O)[C@@H]12` [Example T52], the pest or weed control at 125 g/ha came out at 100% in test [1]; 80% in [2]; 60% in test [3]; 80% in test [4]; 70% in test [5]; 70% in [6]. For the same compound, the pest or weed control at 250 g/ha is 100% in [7]; 90% in test [8]; 40% in [9]; 90% in [10]; 100% in test [11]; 30% in [12].

As for `Cc1cc(C)c(C2=C(O)[C@@H]3[C@@H]4O[C@@H](C[C@H]4c4ccccc4)[C@@H]3C2=O)c(C)c1` [Example T56], the pest or weed control at 125 g/ha was found to be 100% in test [1]; 70% in test [2]; 100% in test [3]; 60% in test [4]; 80% in test [5]; 50% in [6]. The pest or weed control at 250 g/ha was found to be 100% in test [7]; 70% in [8]; 100% in test [9]; 70% in test [10]; 100% in [11]; 60% in test [12].

Regarding `Cc1cc(C)c(C2=C(O)[C@H]3[C@@H](C2=O)[C@@H]2C=C(CO)[C@@]3(C)O2)c(C)c1` [Example T58], the pest or weed control at 125 g/ha in test [1] came out at 30%; in test [2], 40%; in test [3], 0%; in test [4], 30%; in test [5], 0%; in test [6], 10%. Further, the pest or weed control at 250 g/ha in [7] was 60%; in test [8] it was 0%; in test [9], 0%; in test [10], 0%; in test [11], 0%; in test [12] it was 10%.

With `CCC(=O)OC[C@]12C=C[C@H](O1)[C@@H]1C(=O)C(c3c(C)cc(C)cc3C)=C(O)[C@@H]12` [Example T59], the pest or weed control at 125 g/ha in test [1] is 80%; in [2], 80%; in test [3], 50%; in test [4] it was 70%; in test [5] it was 0%; in [6] it was 40%. For the same compound, the pest or weed control at 250 g/ha is 30% in test [7]; 50% in test [8]; 10% in test [9]; 40% in test [10]; 30% in test [11]; 20% in test [12].

On to `CC1=C2CCC(C)C[C@@]23O[C@@H]1C1C(=O)C(c2c(C)cc(C)cc2C)=C(O)C13` (stereo partly drawn) [Example T60], for which the pest or weed control at 125 g/ha worked out at 0% in [1]; 50% in [2]; 10% in [3]; 40% in test [4]; 0% in [5]; 0% in [6]. In addition, the pest or weed control at 250 g/ha in test [7] was found to be 30%; in test [8], 30%; in test [9], 0%; in test [10], 10%; in [11], 10%; in test [12], 40%.

As to `Cc1cc(C)c(C2=C(O)C3C(C2=O)[C@@H]2CC(CO)[C@@]3(C)O2)c(C)c1` (stereo partly drawn) [Example T62], the pest or weed control at 125 g/ha was determined as 80% in [1]; 70% in test [2]; 60% in [3]; 70% in test [4]; 20% in [5]; 0% in test [6]. Also, the pest or weed control at 250 g/ha in test [7] came out at 80%; in [8], 80%; in test [9], 70%; in test [10], 80%; in [11] it was 60%; in test [12] it was 70%.

As for `Cc1cc(C)c(C2=C(O)[C@@H]3[C@@H]4O[C@@H](C[C@H]4C)[C@@H]3C2=O)c(C)c1` [Example T65], the pest or weed control at 125 g/ha is 100% in test [1]; 100% in test [2]; 90% in test [3]; 100% in test [4]; 80% in [5]; 90% in test [6]. Besides, the pest or weed control at 250 g/ha is 100% in test [7]; 100% in [8]; 100% in test [9]; 90% in test [10]; 100% in [11]; 90% in test [12].

Turning to `CSc1ccc([C@@H]2C[C@@H]3O[C@H]2[C@H]2C(O)=C(c4c(C)cc(C)cc4C)C(=O)[C@H]23)cc1` [Example T66], the pest or weed control at 125 g/ha in test [1] came to 80%; in test [2], 90%; in test [3] it was 80%; in [4], 80%; in [5], 50%; in test [6], 80%. Moreover, the pest or weed control at 250 g/ha in test [7] stood at 70%; in [8] it was 90%; in [9], 30%; in test [10] it was 100%; in [11], 40%; in [12], 60%.
